Structures can show the parent of a compound that is named as a salt. Where two headings read alike, the source gives them in different places.
What was measured:
[1] = system: acetylcholine-induced abdominal constriction; test: acetylcholine-induced abdominal constriction test (ACH); format: in vivo; design: key to ACH remark (Depr. = depressant): The abbreviations IA and Depr. represent, respectively, inactive and depressant; The abbreviations IA and Depr. represent, respectively, inactive and depressant; conditions: mice; for ED50 / inhibition in vivo at 100 mg/kg: Mus musculus; for inhibition in vivo at 100 mg/kg: dose level 100, read-out: ACH percent inhibition at dose 100
Description: J. Pharmacol. Chemotherap. 32, 295 (1968); a modification of the anti-bradykinin test, which is also a primary analgesic screening procedure, described by Berkowitz et al., J. Pharmacol. Exptl. Therap. 177, 500-508 (1971), Blane et al., J. Pharm. Pharmacol. 19, 367-373 (1967), Botha et al., Eur. J. Pharmacol. 6, 312-321 (1969) and Deffenu et al., J. Pharm. Pharmacol. 18, 135 (1966); and the Randall-Selitto analgesic test described by Randall and Selitto, Arch. Int. Pharmacodyn., 111, 409-419 (1957).
Data in the developing adjuvant arthritis (AA) and plasma fibronectin (FN) assays are expressed as percent inhibition, i.e. inhibition of non-injected paw inflammation (NIP) and injected paw (RPV) and lowering of plasma fibronectin, the asterisks * and ** indicating statistical significance at the p<0.01 and p<0.05 levels, respectively. […] Non-statistically significant results are recorded as "------ ". In the acetylcholine-induced abdominal constriction test, the test compounds were administered either as suspensions in gum tragacanth (GT) or as aqueous solutions prepared by addition of just sufficient dilute aqueous methanesulfonic acid (MS) or dilute aqueous lactic acid (LA) to dissolve the compound. The compounds are identified by the example number above where their preparations are described. All data in the anti-bradykinin, rat writhing and Randall-Selitto tests were obtained on oral administration.

[2] = system: mouse vasa deferentia preparation; test: mouse vas deferens test (MVD); format: cell-based; conditions: inhibition of contractions, in vitro, active at 5.0 μM or less
Description: It has been shown previously that smoking marijuana reduces intraocular pressure in man [Helper and Frank, Marijuana Smoking and Intraocular Pressure., J. Am. Med. Assoc. 217, 1392 (1971)]. Topical application or systemic injection of delta-9 tetrahydrocannabinol, a principal active ingredient in marijuana, also reduces intraocular pressure [Purnell and Gregg, delta-9 Tetrahydrocannabinol, Euphoria and Intraocular Pressure in Man., Ann. Opth. 7, 921-923 (1975); Green and Pederson, Effect of delta-9 Tetrahydrocannabinol on Aqueous Dynamics and Ciliary Body Permeability in the Rabbit Eye., Exptl. Eye Research 15, 499-507 (1973); Colasanti, Craig and Allara, Intraocular Pressure, Ocular Toxicity and Neurotoxicity after Administration of Cannabinol or Cannibigerol, Exptl. Eye Research 39, 252-259 (1984)]. Similarly, synthetic cannabinoids also reduce intraocular pressure [Green, Symunds, Oliver and Elijah, Intraocular Pressure Following Systemic Administration of Cannabinoids., Curr. Eye Research 2, 247-253 (1982); Tiedeman, Shields, Weber, Crow, Coccetto, Harris and Howes, Opthalmology, 88, 270-277 (1981); Colasanti et al., supra]. Cannabinoid receptor binding sites can be defined as those to which radio-labelled 4-(1,1-dimethylheptyl)-2,3'-dihydroxy-6'alpha-(3-hydroxypropyl)-1', 2', 3', 4', 5', 6'-hexahydrobiphenyl (CP 55940) binds in a specific and saturable manner and the binding sites are heterogeneously distributed in the brain [Devane, Dysarz, Johnson, Melvin and Howlett, Determination and Characterization of a Cannabinoid Receptor in Rat Brain, Molecular Pharm. 34, 605-613 (1988)]. Natural and synthetic cannabinoids and certain of the compounds of the present invention, as more particularly described above, bind to CP 55940 binding sites. […] It is believed that agonist activity at the cannabinoid receptor mediates the anti-glaucoma actions of cannabinoids, and that agonist activity at this receptor correlates with ocular pressure lowering actions in man. Accordingly the cannabinoid receptor agonist activity of the compounds of the present invention indicate their usefulness in reducing ocular pressure.

[3] = system: acetic acid-induced writhing; test: acetic acid-induced writhing assay in the rat (RW); format: in vivo; conditions: Rattus norvegicus, po, oral administration
Procedure: (§1) Data in the developing adjuvant arthritis (AA) and plasma fibronectin (FN) assays are expressed as percent inhibition, i.e. inhibition of non-injected paw inflammation (NIP) and injected paw (RPV) and lowering of plasma fibronectin, the asterisks * and ** indicating statistical significance at the p<0.01 and p<0.05 levels, respectively. Compounds are considered active at p<0.05 level. Non-statistically significant results are recorded as "------ ". In the acetylcholine-induced abdominal constriction test, the test compounds were administered either as suspensions in gum tragacanth (GT) or as aqueous solutions prepared by addition of just sufficient dilute aqueous methanesulfonic acid (MS) or dilute aqueous lactic acid (LA) to dissolve the compound. The compounds are identified by the example number above where their preparations are described. All data in the anti-bradykinin, rat writhing and Randall-Selitto tests were obtained on oral administration.

[4] = system: adjuvant induced arthritis; test: developing adjuvant arthritis (AA) assay; format: in vivo; conditions: arthritic rats; printed * = p<0.01, ** = p<0.05
Procedure: Antirheumatic and anti-inflammatory activities of the compounds of the invention were determined using the developing adjuvant arthritis assay in rats and the plasma fibronectin assay in arthritic rats. The developing adjuvant arthritis assay was used in conjunction with the plasma fibronectin assay as a primary screening method in the evaluation of compounds for potential use as disease modifying anti-rheumatic drugs. The procedure used to induce arthritis in rats is a modification of the methods published by Pearson, J. Chron. Dis. 16, 863-874 (1973) and by Glenn et al., Amer. J. Vet. Res. 1180-1193 (1965). Adjuvant induced arthritis bears many of the traits of rheumatoid arthritis. It is a chronic, progressive, deforming arthritis of the peripheral joints, with a primary mononuclear cell response consisting of bone and joint space invasion by pannus. In order to detect disease modifying anti-rheumatic drug activity, drug treatment is started before the disease has become irrevocably established. Since such drugs are not designed to be administered prophylactically, drug treatment of adjuvant arthritis is initiated at a time when the disease is developing but is not yet irreversible. Animals develop significant systemic arthritic disease which can be measured by swelling of the non-injected rear paw (NIP) 15 to 20 days following an initial injection on day 1 of complete Freund's adjuvant into the right hindfoot paw.
as §1

[5] = Table 9, Examples, no route marked in the cell, read-out: ACH ED50
[6] = iv, Table 9, iv, read-out: ACH ED50 (iv)

Row | SMILES | ED50 [1, 5] [mg/kg] | IC50 ([2]; Mus musculus) [nM] | also measured
1 | COc1ccc(C(=O)c2c(C)n(C[C@@H]3CC[C@H](C)N3C)c3ccccc23)cc1 (relative stereo) [Example 1Z] | 14 | 48 | ED50 [1, 6]: 3 mg/kg
2 | CN1CCN(C)C(Cn2cc(C(=O)c3cccc4ccccc34)c3ccccc32)C1 (stereo not drawn) [3G (base)] |  | 15 | 
3 | CN1CC[N+](C)(C)CC1Cn1cc(C(=O)c2cccc3ccccc23)c2ccccc21 (stereo not drawn) [3G (quaternary)] |  | 156 | 
4 | COc1ccc(C(=O)c2cn(C(C)C3CCCN3C)c3ccccc23)cc1 (stereo not drawn) [Example 1AA] | 23 |  | ED50 [1, 6]: 5 mg/kg; ED50 [3]: 20 mg/kg; IC50 [2]: 127 nM
5 | CC(C1CCCN1C)n1cc(C(=O)c2ccccc2F)c2ccccc21 (stereo not drawn) [Example 1AC] |  | 111 | inhibition in vivo at 100 mg/kg ([1]; Table 9): 40%
6 | COc1ccc(C(=O)c2c(C)n(C(C)C3CCCN3C)c3ccccc23)cc1 (stereo not drawn) [Example 1AF] | 19 | 542 | 
7 | COc1ccc(C(=O)c2c(C)n(CC3CCC(C)(C)N3C)c3ccccc23)cc1 (stereo not drawn) [Example 1AH] |  | 330 | 
8 | Cc1c(C(=O)c2cccc3ccccc23)c2ccccc2n1CC1CN(C)CCO1 (stereo not drawn) [Example 1G] |  | 50 | ED50 [1, 6]: 6 mg/kg; inhibition in vivo at 100 mg/kg ([1]; Table 9): 10%
9 | CN1CCCC(Cn2cc(C(=O)c3cccc4ccccc34)c3ccccc32)C1 (stereo not drawn) [Example 1P] | 144 | 28 | NIP: percent inhibition of non-injected paw inflammation [4]: 38%; RPV: percent inhibition of injected paw [4]: 43%
10 | Cc1c(C(=O)c2cccc3ccccc23)c2ccccc2n1C1CCCCN(C)C1 (stereo not drawn) [Example 2AB] |  | 13 | inhibition in vivo at 100 mg/kg ([1]; Table 9): 30%
11 | CN1CCCCC1Cn1cc(C(=O)c2ccccc2F)c2ccccc21 (stereo not drawn) [Example 2AC] | 10 | 3 | ACH remark (Depr. = depressant) ([1]; Table 9, remark beside the ED50): Depr.
12 | O=C(c1cccc2ccccc12)c1cn(CC2CCCCN2Cc2ccccc2)c2ccccc12 (stereo not drawn) [Example 2AM] |  | 51 | 
13 | O=C(c1cccc2ccccc12)c1cn(C2CCCCN(Cc3ccccc3)C2)c2ccccc12 (stereo not drawn) [Example 2AO] |  | 480 | 
14 | CN1CCCC1Cn1cc(C(=O)c2ccccc2F)c2ccccc21 (stereo not drawn) [Example 2M] | 53 | 39 | 
15 | Cc1c(C(=O)c2cccc3ccccc23)c2ccccc2n1CC1CCCN1C (stereo not drawn) [Example 2Q] |  | 2 | inhibition in vivo at 100 mg/kg ([1]; Table 9): 20%
16 | CN1CCCCC(n2cc(C(=O)c3cccc4ccccc34)c3ccccc32)C1 (stereo not drawn) [Example 2Z] |  | 82 | ACH percent inhibition at dose 30 (iv) ([1]; Table 9, dose level 30, iv): 80%; NIP: percent inhibition of non-injected paw inflammation [4]: 65%
17 | O=C(c1cccc2ccccc12)c1cn(CC2COCCN2Cc2ccccc2)c2ccccc12 (stereo not drawn) [Example 3F] |  | 224 | ED50 [1, 6]: 2.2 mg/kg
18 | CC(C1CCCN(C)C1)n1cc(C(=O)c2ccccc2F)c2ccccc21 (stereo not drawn) [Example 4F] | 24 |  | ED50 [3]: 6 mg/kg; NIP: percent inhibition of non-injected paw inflammation [4]: 45%; RPV: percent inhibition of injected paw [4]: 27%
19 | O=C(c1cccc2ccccc12)c1cn(CC2CCCCN2)c2ccccc12 (stereo not drawn) [Example 4I] |  | 0.3 | ACH percent inhibition at dose 30 ([1]; Table 9, dose level 30): 30%
20 | Cc1c(C(=O)c2ccc([S+](C)[O-])cc2)c2ccccc2n1CC1CCCN(C)C1.Cl (stereo not drawn) [Example 6A, 1-[(1-methyl-3-piperidinyl)methyl]-2-methyl-3-(4-methylsulfinylbenzoyl)-1H-indole hydrochloride] | 9 |  | ED50 [3]: 5 mg/kg; NIP: percent inhibition of non-injected paw inflammation [4]: 93%; RPV: percent inhibition of injected paw [4]: 81%
21 | Cc1c(C(=O)c2ccccc2F)c2ccccc2n1CC1CCC(C)N1 (stereo not drawn) [Example 8E] |  | 160 | 
22 | O=C(c1cccc(F)c1)c1cn(CC2CCCN2)c2ccccc12 (stereo not drawn) [Example 8F] |  | 325 | 
23 | O=C(c1cccc2ccccc12)c1cn(CC2COCCN2)c2ccccc12 (stereo not drawn) [Example 8G] |  | 4.7 | ACH percent inhibition at dose 30 ([1]; Table 9, dose level 30): 100%
24 | COc1ccc(C(=O)c2c(C)n(C3CN(C)C3)c3ccccc23)cc1.O=C(O)/C=C\C(=O)O [Example 10A, 2-methyl-3-(4-methoxybenzoyl)-1-(1-methyl-3-azetidinyl)-1H-indole maleate] | 40 | 495 | 
25 | CN1CCOCC1Cn1cc(C(=O)c2cccc3ccccc23)c2ccccc21.Cl (stereo not drawn) [Example 10C, 3-(1-naphthylcarbonyl)-1-[(4-methyl-3-morpholinyl)methyl]-1H-indole hydrochloride] |  | 0.4 | ACH percent inhibition at dose 30 ([1]; Table 9, dose level 30): 50%
26 | Cc1c(C(=O)c2ccc(O)cc2)c2ccccc2n1CC1CCCN1C (stereo not drawn) [Example 11A, 2-methyl-3-(4-hydroxybenzoyl)-1-[(1-methyl-2-pyrrolidinyl)methyl]-1H-indole hydrochloride] |  | 284 | 
27 | Cc1c(C(=O)c2ccc(O)cc2)c2ccccc2n1CC1CCC(C)N1C (stereo not drawn) [Example 11B, 2-methyl-3-(4-hydroxybenzoyl)-1-[(1,5-dimethyl-2-pyrrolidinyl)methyl]-1H-indole hydrochloride] |  | 217 | 
